The test system of one series is B16-F10. The experiment in a line: Anticancer activity against mouse B16-F10 cells assessed as inhibition in cell growth measured after 72 hrs by MTT assay. The series is classed as functional, cell-based. The note with it: B16-F10, 72 h.
In series [1] the test system is SK-MEL-28. The series can be described thus: Induction of morphological changes in human SK-MEL-28 cells assessed as production of apoptotic bodies by ethidium bromide/acridine orange staining based analysis. It is filed as functional, cell-based. The conditions noted are these: dose 1-5 µM.
A short description of series [2]: Selectivity index, ratio of IC50 for NRK-52E cells to ratio of IC50 for human SK-MEL-28 cells.
In series [3] the test system is SK-MEL-28. The series can be described thus: Induction of apoptosis in human SK-MEL-28 cells assessed as late apoptotic cells at 1 uM incubated for 24 hrs by Annexin V-FITC/PI dual staining based flow cytometry analysis (reference value: 0.1%). The series is classed as functional.
A short description of series [4]: Cytotoxicity against NRK-52E cells assessed as inhibition in cell growth measured after 72 hrs by MTT assay. It is filed as toxicity, cell-based. The conditions noted are these: rat.
Series [5] deals with SK-MEL-28. The series can be described thus: Induction of cell cycle arrest in human SK-MEL-28 cells assessed as accumulation of cells at S phase at 2.5 uM measured after 48 hrs by PI staining based flow cytometry (reference value: 16.5%). It is filed as functional.
Series [6] has as its system SK-MEL-28. The series can be described thus: Induction of morphological changes in human SK-MEL-28 cells assessed as appearance of nuclei at 1 to 5 uM measured after 48 hrs DAPI staining based analysis. It is filed as functional, cell-based. The note with it: dose 1-5 µM.
The subject of series [7] is SK-MEL-28. The series can be described thus: Induction of mitochondrial membrane potential depolarization in human SK-MEL-28 cells assessed as J-monomer level by measuring green fluorescence intensity at 2.5 uM incubated for 48 hrs by JC-1 staining based analysis (reference value: 0.8%). It is filed as functional.
Series [8] relates to SK-MEL-28. The series can be described thus: Induction of mitochondrial membrane potential changes in human SK-MEL-28 cells assessed as J-aggregate level by measuring red fluorescence intensity at 2.5 uM incubated for 48 hrs by JC-1 staining based analysis (reference value: 98.9%). The series is classed as functional.
For series [9], the system named is SK-MEL-28. The series can be described thus: Induction of morphological changes in human SK-MEL-28 cells assessed as chromatin condensation at 1 to 5 uM measured after 48 hrs DAPI staining based analysis. The series is classed as functional, cell-based. The note with it: dose 1-5 µM.
Series [10] in a line: Selectivity index, ratio of IC50 for NRK-52E cells to ratio of IC50 for human HCT-116 cells. It is filed as toxicity. The conditions noted are these: rat (NRK-52E), NRK-52E cells versus HCT-116 cells, read-out: Selectivity Index.
The nature of series [11]: Selectivity index, ratio of IC50 for NRK-52E cells to ratio of IC50 for human MCF7 cells. The series is classed as toxicity. The conditions noted are these: rat (NRK-52E), NRK-52E cells versus MCF7 cells, read-out: Selectivity Index.
Series [12] deals with SK-MEL-28. The experiment in a line: Induction of apoptosis in human SK-MEL-28 cells assessed as late apoptotic cells at 2.5 uM incubated for 24 hrs by Annexin V-FITC/PI dual staining based flow cytometry analysis (reference value: 0.1%). The series is classed as functional.
For series [13], the system named is SK-MEL-28. The experiment in a line: Induction of morphological changes in human SK-MEL-28 cells assessed as nuclear shrinkage at 1 to 5 uM measured after 48 hrs DAPI staining based analysis. It is filed as functional, cell-based. The conditions noted are these: dose 1-5 µM.
Series [14] concerns the target T1, Tubulin (Homo sapiens) (UniProt P68371+Q9H4B7+P0DPH7+P68366+Q13509+Q71U36+P04350+Q3ZCM7+P07437+P68363+Q9BQE3+Q6PEY2+Q13885+Q9BVA1+Q9BUF5). The experiment in a line: Inhibition of tubulin polymerization (unknown origin) at 6 uM incubated for 1 hr relative to control. It is filed as protein-complex assay.
In a further series the test system is A549. The experiment in a line: Anticancer activity against human A549 cells assessed as inhibition in cell growth measured after 72 hrs by MTT assay. The series is classed as functional, cell-based. The conditions noted are these: A549, 72 h.
Series [15] concerns the target T1, Tubulin (Homo sapiens). The series can be described thus: Inhibition of tubulin polymerization (unknown origin) at 3 uM incubated for 1 hr relative to control. The series is classed as protein-complex assay.
Series [16] deals with SK-MEL-28. The series can be described thus: Inhibition of cell migration in human SK-MEL-28 cells at 1 to 5 uM incubated for 0 to 48 hrs by phase-contrast microscopy. It is filed as functional, cell-based. The conditions noted are these: dose 1-5 µM, time 0-48 hrs.
Series [17] relates to SK-MEL-28. The series can be described thus: Induction of mitochondrial membrane potential depolarization in human SK-MEL-28 cells assessed as J-monomer level by measuring green fluorescence intensity at 1 uM incubated for 48 hrs by JC-1 staining based analysis (reference value: 0.8%). The series is classed as functional.
In series [18] the test system is SK-MEL-28. The series can be described thus: Induction of mitochondrial membrane potential changes in human SK-MEL-28 cells assessed as J-aggregate level by measuring red fluorescence intensity at 5 uM incubated for 48 hrs by JC-1 staining based analysis (reference value: 98.9%). The series is classed as functional.
Series [19] relates to SK-MEL-28. The experiment in a line: Induction of cell cycle arrest in human SK-MEL-28 cells assessed as accumulation of cells at S phase at 5 uM measured after 48 hrs by PI staining based flow cytometry (reference value: 16.5%). It is filed as functional.
For series [20], the target named is T1, Tubulin (Homo sapiens). The experiment in a line: Inhibition of tubulin polymerization (unknown origin) at 1.5 uM incubated for 1 hr relative to control. The series is classed as protein-complex assay.
Series [21] relates to SK-MEL-28. The series can be described thus: Induction of apoptosis in human SK-MEL-28 cells assessed as necrotic cells at 5 uM incubated for 24 hrs by Annexin V-FITC/PI staining based flow cytometry analysis (reference value: 0.1%). It is filed as functional.

Active and inactive are the calls of the source. The rule behind the calls is not given here.

In the case of `COc1cc(-c2nc3cc(F)ccc3[nH]2)ccc1OCC(=O)N1CCc2ccccc21`, the figures for the IC50 in the series with B16-F10 and in the series on A549 were 3.1 µM and 3.84 µM, respectively. The Activity result with SK-MEL-28 [1] is “Dose-Dependent Effect”; in the series on SK-MEL-28 [3], 10.7%; with SK-MEL-28 [5] it was 23.71%; in the series on SK-MEL-28 [7], 3.2%; in the series with SK-MEL-28 [8] it was 96.7%; in the series on SK-MEL-28 [12], 20.2%. The Activity in the series on SK-MEL-28 [17] was 2%; in the series on SK-MEL-28 [18], 85.1%; in the series on SK-MEL-28 [19], 25.66%; with SK-MEL-28 [21], 13%. Also, the “Selectivity Index” value in series [2] worked out at 20. The IC50 at 72 h in [4] amounted to 53.8 µM. Moreover, the outcome with SK-MEL-28 [6], with SK-MEL-28 [9] and in the series on SK-MEL-28 [13] was Active. Moreover, the selectivity ratio was determined as 7.7 in series [10] and 3 in series [11]. The inhibition at Tubulin (Homo sapiens) [14] was 52.4%; against Tubulin (Homo sapiens) [15], 47.4%; at Tubulin (Homo sapiens) [20] it was 35.1%. Moreover, in the series on SK-MEL-28 [16], the inhibition result was “Active”.

Values taken from ChEMBL document CHEMBL5390218, “Benzimidazole derivatives as tubulin polymerization inhibitors: Design, synthesis and in vitro cytotoxicity studies” (Bioorg Med Chem Lett, 2023).
